Data set [1] relates to Phospho-ERK levels in KYSE-520 cells. The experiment in a line: ERK Phosphorylation (Phospho-ERK) Target Engagement Assay (HTRF). The settings on record: Homo sapiens, 2 hr compound incubation, phospho-ERK1/2 HTRF kit, read-out: pERK target engagement assay Avg IC50. The data set is classed as cell-based. On the procedure: KYSE-520 cells (10 k cells/well) are plated onto 384-well plate in 20 uL of medium (RPMI-1640, without phenol red, containing 10% FBS) and incubated at 37° C., 5% CO2 16 h. DMSO (control) or increasing concentrations of compounds are diluted in medium, added to the 384-well plate (10 uL/well, final DMSO concentration of 0.5-1%), and cells are then incubated with compounds for 2 hr. Phospho-ERK levels are measured using a TR-FRET based phospho-ERK1/2 HTRF kit (CisBio, 64ERKPEH) following manufacturer's recommendations, and fluorescence signal was measured at 665 nm and 620 nm using Synergy Neo plate reader. Dose-response curves were analyzed using IC50 regression curve fitting (GeneData Screener). Curves were normalized to a high controls without inhibitor, and low controls with 1 μM of selumetinib.
For orientation: In TR-FRET formats the signal depends on donor and acceptor labels being close together.

Data set [2] deals with BT474 human breast carcinomas cell line. The experiment in a line: In Vivo Tumor Models: BT474 xenograft. The following applies: BT474 (HER2+) xenograft in mouse, 100 mg/kg once per day oral gavage, 5 days on/2 days off, 4 weeks. From the text: Xenografts were initiated with BT474 human breast carcinomas cell line and maintained by serial subcutaneous transplantation in CB-17/SCID mice (Charles River). On the day of tumor implant, each test mouse received a 1 mm^3 BT474 fragment implanted subcutaneously in the right flank, and tumor growth was monitored as the average size approached the target range of 100 to 150 mm3. About three weeks post-implantation, the animals were randomized and grouped based on tumor volume and mouse body weight. […] Tumors were measured in two dimensions using calipers, and volume was calculated using the formula: Tumor Volume (mm^3)=[…].
Results are found in FIGS. 1 and 2.

In data set [3] the target is PTPN11-E76K mutant enzyme (Homo sapiens (Human), UniProt Q06124, E76K). Description: PTPN11 Enzymatic Assay (DiFMUP phosphatase activity). It counts as biochemical. The settings on record: full length PTPN11-E76K mutant enzyme 250 pM, DiFMUP 50 μM, 30 min preincubation; read-out: PTPN11-E76K Avg IC50. On the procedure:
Reaction was initiated by addition of DiFMUP (50 μM) at room temperature in 384-well black plate with a final reaction volume of 20 uL in assay buffer. […] Dose-response curves were analyzed using IC50 regression curve fitting (GeneData Screener). Curves were normalized to a high controls without inhibitor, and low controls without enzyme.

Data set [4] deals with Phospho-ERK levels in KYSE-520 cells. The experiment in a line: pERK AlphaScreen Protocol. It counts as cell-based. The following applies: Homo sapiens, KYSE-520, 2 h, KYSE-520 cells, 2 hr compound incubation, phospho-ERK1/2 AlphaScreen SureFire; read-out: PERK Avg IC50. In short, it runs like this:
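After overnight growth at 10 k cells/well in RPMI-1640 with 10% FBS, KYSE-520 cells received compound dilutions for 2 h at 1% final DMSO.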
In general terms: In Alpha technology, singlet oxygen from a donor bead excites a nearby acceptor bead.

pIC50: −log10 of the molar value.

Results on 13 compounds are retold here after patent US10280171B2, “Heterocyclic inhibitors of PTPN11” (priority 2016, dated 2019).

PTPN11-E76K mutant enzyme, sequence (Q06124 whole entry E76K): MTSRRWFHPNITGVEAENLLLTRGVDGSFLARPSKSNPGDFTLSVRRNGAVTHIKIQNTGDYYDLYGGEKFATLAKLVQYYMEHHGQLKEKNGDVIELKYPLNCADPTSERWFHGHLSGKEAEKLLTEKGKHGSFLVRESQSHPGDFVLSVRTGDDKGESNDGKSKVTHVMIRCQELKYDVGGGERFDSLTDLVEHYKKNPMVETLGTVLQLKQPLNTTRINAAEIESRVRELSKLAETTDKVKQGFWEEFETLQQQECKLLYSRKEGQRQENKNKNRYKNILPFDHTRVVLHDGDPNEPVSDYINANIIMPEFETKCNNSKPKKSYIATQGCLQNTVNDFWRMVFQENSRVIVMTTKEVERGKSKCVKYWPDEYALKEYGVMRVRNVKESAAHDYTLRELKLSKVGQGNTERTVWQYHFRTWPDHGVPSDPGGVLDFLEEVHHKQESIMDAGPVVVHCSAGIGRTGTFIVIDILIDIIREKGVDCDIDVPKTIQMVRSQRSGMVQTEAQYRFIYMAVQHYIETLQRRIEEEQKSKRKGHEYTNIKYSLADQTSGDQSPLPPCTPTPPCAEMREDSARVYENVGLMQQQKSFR

As a reminder, the pIC50 is the negative decadic logarithm of the IC50, by convention in mol/L. On to `CC1(N)CCN(c2cnc3c(-c4cccc(Cl)c4Cl)n[nH]c3n2)CC1` [Example 1, 1-(3-(2,3-dichlorophenyl)-1H-pyrazolo[3,4-b]pyrazin-6-yl)-4-methylpiperidin-4-amine], for which the pIC50 in data set [1] is 7.31. For the same compound, in data set [2], the “suppression of tumor growth” value is listed as “significant suppression of tumor growth” and the tolerability of dose result is reported as “tolerated”.

Take `Clc1cccc(-c2n[nH]c3nc(N4CCC5(CCNC5)CC4)cnc23)c1Cl` [Example 2, 8-(3-(2,3-dichloro-phenyl)-1H-pyrazolo[3,4-b]-pyrazin-6-yl)-2,8-diazaspiro-[4.5]decane]: the pIC50 in data set [1] was 6.77; in data set [3] it was 6.10.

For the compound `N[C@@H]1[C@H]2CN(c3cnc4c(-c5cccc(Cl)c5Cl)n[nH]c4n3)C[C@@H]12` [Example 3, (1R,5S,6S)-3-(3-(2,3-dichlorophenyl)-1H-pyrazolo[3,4-b]-pyrazin-6-yl)-3-aza-bicyclo[3.1.0]hexan-6-amine], the pIC50 is 6.49 in data set [1] and 5.97 in data set [3].

In the case of `CC1(CN)CCN(c2cnc3c(-c4cccc(Cl)c4Cl)n[nH]c3n2)CC1` [Example 4, (1-(3-(2,3-dichloro-phenyl)-1H-pyrazolo[3,4-b]-pyrazin-6-yl)-4-methylpiperidin-4-yl)methanamine], the pIC50 in data set [1] is 7.14.

For the compound `CNC1(C)CCN(c2cnc3c(-c4cccc(Cl)c4Cl)n[nH]c3n2)CC1` [Example 6, 1-(3-(2,3-Dichlorophenyl)-1H-pyrazolo[3,4-b]-pyrazin-6-yl)-N,4-dimethylpiperidin-4-amine], the negative-log IC50 (pIC50) is 6.91 in data set [1] and 8.70 in data set [3].

On to `Nc1nccc(-c2n[nH]c3nc(N4CCC5(CCC[C@H]5N)CC4)cnc23)c1Cl` [Example 130, (1R)-8-[3-(2-amino-3-chloropyridin-4-yl)-1H-pyrazolo[3,4-b]pyrazin-6-yl]-8-azaspiro[4.5]decan-1-amine], for which the negative-log IC50 (pIC50) in data set [3] was 7.08; in data set [4], 7.19.

In the case of `Nc1cccc(-c2n[nH]c3nc(N4CCC5(CCC[C@H]5N)CC4)cnc23)c1Cl` [Example 131, (1R)-8-[3-(3-amino-2-chlorophenyl)-1H-pyrazolo[3,4-b]-pyrazin-6-yl]-8-aza-spiro[4.5]decan-1-amine], the figures for the negative logarithm of the IC50 (pIC50) in data set [3] and in data set [4] were 7.08 and 7.46, respectively.

For the compound `CC1(CN)CCN(c2cnc3c(-c4cccc(N)c4Cl)n[nH]c3n2)CC1` [Example 132, 3-{6-[4-(amino-methyl)-4-methyl-piperidin-1-yl]-1H-pyrazolo[3,4-b]-pyrazin-3-yl}-2-chloroaniline], the pIC50 was 6.92 in data set [3] and 7.20 in data set [4].

For `CC1(CN)CCN(c2cnc3c(-c4cc(N)ncc4Cl)n[nH]c3n2)CC1` [Example 133, 4-{6-[4-(amino-methyl)-4-methyl-piperidin-1-yl]-1H-pyrazolo[3,4-b]-pyrazin-3-yl}-5-chloropyridin-2-amine], the figures for the negative logarithm of the IC50 (pIC50) in data set [3] and in data set [4] were 6.08 and 6.27, respectively.

As to `NCC1(O)CCN(c2cnc3c(-c4cc(N)ncc4Cl)n[nH]c3n2)CC1` [Example 134, 1-[3-(2-amino-5-chloropyridin-4-yl)-1H-pyrazolo[3,4-b]-pyrazin-6-yl]-4-(aminomethyl)-piperidin-4-ol], the values for the pIC50 in data set [3] and in data set [4] were 5.81 and 5.70, respectively.

With `CCC1(N)CCN(c2cnc3c(-c4ccnc(N)c4Cl)n[nH]c3n2)CC1` [Example 135, 4-[6-(4-amino-4-ethylpiperidin-1-yl)-1H-pyrazolo[3,4-b]-pyrazin-3-yl]-3-chloropyridin-2-amine], the negative-log IC50 (pIC50) in data set [3] was 6.28; in data set [4], 6.91.

For `Nc1cc(-c2n[nH]c3nc(N4CCC5(CC4)COC[C@H]5N)cnc23)c(Cl)cn1` [Example 137, (4S)-8-[3-(2-amino-5-chloropyridin-4-yl)-1H-pyrazolo[3,4-b]pyrazin-6-yl]-2-oxa-8-azaspiro[4.5]-decan-4-amine], the pIC50 in data set [3] is 6.30; in data set [4], 5.99.

With `CC1(N)CCN(c2cnc3c(-c4cc(N)ncc4Cl)n[nH]c3n2)CC1` [Example 138, 4-[6-(4-amino-4-methylpiperidin-1-yl)-1H-pyrazolo[3,4-b]pyrazin-3-yl]-5-chloropyridin-2-amine], the pIC50 in data set [3] was 6.23; in data set [4], 6.39.
